Measured values taken from patent US20260232815A1, “COPOLYMER-DRUG CONJUGATE FOR TREATMENT OF TUMOURS” (Danmarks Tekniske Universitet, priority 2023, published 2026).

System: Murine colon carcinoma CT26
Assay: Antitumour efficacy after intratumoral treatment of CT26 tumours
Format: in vivo, Balb/cJRj mice
Method: Healthy Balb/cJRj mice were injected with 100 μL of Murine colon carcinoma CT26 cancer cells (3×105) in RPMI media subcutaneously on the right flank. Mice bearing tumors with volumes between 50 and 200 mm^3 were randomized and rearranged into new cages by blocking for initial tumor volume, and each cage received one of the four treatments described in Table 2 administered intratumorally (50 μL). A total of 3 injections, separated by 7 days each, were made for each treatment.
83 days after the first tumor inoculation, the surviving mice were re-challenged by a second inoculation of CT26 cancers cells (same dose) on the left flank of the mice along with a control group getting their first inoculation. The mice were monitored for weight and their tumors were measured using an electronic caliper twice a week, and fluorescence imaging was performed at regular intervals for all formulations containing Cy7 moieties. […] Humane endpoints included general signs of misthriving mice, significant weight loss (15% of initial weight or 10% overnight weight loss), or presence of tumor wounds larger than 8 mm.

With `CCOCc1nc2c(N)nc3ccccc3c2n1CCCN` [TLR7/8a, 4-Amino-2-(ethoxymethyl)-1H-imidazo[4,5-c]quinoline-1-propanamine] the “antitumour activity / improvement versus control” value (intratumoral treatment) was “potential minor improvement in tumour treatment compared to the control”, the “averaged slope coefficient for the tumour growth plots (tumour growth rate)” value (mouse, in vivo) was “positive” and the “mice recovered from the tumour” value (six mice per group, 3 intratumoral injections 7 days apart) was “two out of six mice recovered”.
